{
  "source": "patent US12485121B2",
  "about": "“Antiviral agents for the treatment and prevention of HIV infection” (Pharmasyntez, Joint Stock Company, priority 2020, dated 2025)",
  "test_system": "HIV-1 subtype A strain 12RU 69831",
  "assay": "Inhibition of HIV-1 reproduction / protection of infected MT-4 cells (living cell concentration, p24 production)",
  "format": "cell-based",
  "conditions": "Human immunodeficiency virus 1, MT4, MT-4 cells infected with HIV-1 at a constant virus dose of 300 CCID50; read-out: Activity against HIV-1 12RU 69831 strain (subtype A)",
  "method": "Evaluation of HIV reproduction inhibition/protection of human cells by anti-HIV products of the present invention was conducted by measuring change in living cells concentration in experimental wells with MT-4 cells infected with HIV-1, as well as by the production of viral protein p24 with adding different concentrations of compounds according to the present invention. Antiviral activity of products against HIV-1 subtype A strain 12RU 69831 was determined, when the cell culture was infected with a constant dose of virus, corresponding to 300 CCID50.",
  "data": [
    {"smiles": "Cc1cc(C#N)cc(C)c1Oc1nc(Nc2ccc(C#N)cc2)nc2c1CN(C(=O)[C@H](C)NC(=O)OC(C)(C)C)CC2", "note": "[BB0274101, (S)-Tert-butyl (1-(4-(4-cyano-2,6-dimethylphenoxy)-2-((4-cyanophenyl)amino)-7,8-dihydropyrido[4,3-d]pyrimidine-6(5H)-yl)-1-oxopropane-2-yl)carbamate]", "values": [
      {"measurement": "IC50", "result": 8.8, "unit": "µM"}
    ]},
    {"smiles": "Cc1cc(C#N)cc(C)c1Oc1nc(Nc2ccc(C#N)cc2)nc2c1CN(C(=O)[C@H](N)C(C)C)CC2", "note": "[BB0274127, (R)-4-((6-(2-Amino-3-methylbutanoyl)-2-((4-cyanophenyl)amino)-5,6,7,8-tetrahydropyrido[4,3-d]pyrimidine-4-yl)oxy)-3,5-dimethylbenzonitrile]", "values": [
      {"measurement": "IC50", "result": 12.1, "unit": "µM"}
    ]},
    {"smiles": "Cc1cc(C#N)cc(C)c1Oc1nc(Nc2ccc(C#N)cc2)nc2c1CN(C(=O)C1CCCN1C(=O)OC(C)(C)C)CC2", "note": "(stereo not drawn) [BB0274097, Tert-butyl 2-(4-(4-cyano-2,6-dimethylphenoxy)-2-((4-cyanophenyl)amino)-5,6,7,8-tetrahydropyrido[4,3-d]pyrimidine-6-carbonyl)pyrrolidine-1-carboxylate]", "values": [
      {"measurement": "IC50", "result": 664, "unit": "µM"}
    ]},
    {"smiles": "Cc1cc(C#N)cc(C)c1Oc1nc(Nc2ccc(C#N)cc2)nc2c1CN(S(C)(=O)=O)CC2", "note": "[BB0273964, 4-((2-((4-Cyanophenyl)amino)-6-(methylsulfonyl)-5,6,7,8-tetrahydropyrido[4,3-d]pyrimidine-4-yl)oxy)-3,5-dimethylbenzonitrile]", "values": [
      {"measurement": "IC50", "result": 0.145, "unit": "µM"}
    ]},
    {"smiles": "Cc1cc(C#N)cc(C)c1Oc1nc(Nc2ccc(C#N)cc2)nc2c1CCN(C(=O)Cn1ccnc1)CC2", "note": "[BB0274227, 4-((7-(2-(1H-Imidazole-1-yl)acetyl)-2-((4-cyanophenyl)amino)-6,7,8,9-tetrahydro-5H-pyrimido[4,5-d]azepine-4-yl)oxy)-3,5-dimethylbenzonitrile]", "values": [
      {"measurement": "IC50", "result": 0.0125, "unit": "µM"}
    ]},
    {"smiles": "Cc1cc(C#N)cc(C)c1Oc1nc(Nc2ccc(C#N)cc2)nc2c1CN(C(=O)C1CCCN1)CC2", "note": "(stereo not drawn) [BB0274098, 4-((2-((4-Cyanophenyl)amino)-6-(pyrrolidine-2-carbonyl)-5,6,7,8-tetrahydropyrido[4,3-d]pyrimidine-4-yl)oxy)-3,5-dimethylbenzonitrile]", "values": [
      {"measurement": "IC50", "result": 0.046, "unit": "µM"}
    ]},
    {"smiles": "Cc1cc(C#N)cc(C)c1Oc1nc(Nc2ccc(C#N)cc2)nc2c1CN(S(N)(=O)=O)CC2", "note": "[BB0274239, 4-(4-Cyano-2,6-dimethylphenoxy)-2-[(4-cyanophenyl)amino]-5H,6H,7H,8H-pyrido[4,3-d]pyrimidine-6-sulfonamide]", "values": [
      {"measurement": "IC50", "result": 359, "unit": "µM"}
    ]},
    {"smiles": "Cc1cc(C#N)cc(C)c1Oc1nc(Nc2ccc(C#N)cc2)nc2c1CCN(Cc1cccnc1)CC2", "note": "[BB0274015, 4-((2-((4-Cyanophenyl)amino)-7-(pyridine-3-ylmethyl)-6,7,8,9-tetrahydro-5H-pyrimido[4,5-d]azepine-4-yl)oxy)-3,5-dimethylbenzonitrile]", "values": [
      {"measurement": "IC50", "result": 29.9, "unit": "µM"}
    ]},
    {"smiles": "Cc1cc(C#N)cc(C)c1Oc1nc(Nc2ccc(C#N)cc2)nc2c1CN(C(=O)CN)CC2", "note": "[BB0274051, 4-((6-(2-Aminoacetyl)-2-((4-cyanophenyl)amino)-5,6,7,8-tetrahydropyrido[4,3-d]pyrimidine-4-yl)oxy)-3,5-dimethylbenzonitrile]", "values": [
      {"measurement": "IC50", "result": 0.00552, "unit": "µM"}
    ]},
    {"smiles": "Cc1cc(C#N)cc(C)c1Oc1nc(Nc2ccc(C#N)cc2)nc2c1CNCC2", "note": "[BB0273963, 4-((2-((4-Cyanophenyl)amino)-5,6,7,8-tetrahydropyrido[4,3-d]pyrimidine-4-yl)oxy)-3,5-dimethylbenzonitrile]", "values": [
      {"measurement": "IC50", "result": 7.56, "unit": "µM"}
    ]},
    {"smiles": "Cc1cc(C#N)cc(C)c1Oc1nc(Nc2ccc(C#N)cc2)nc2c1CCN(C(=O)C1CCCN1C(=O)OC(C)(C)C)CC2", "note": "(stereo not drawn) [BB0274063, Tert-butyl 2-(4-(4-cyano-2,6-dimethylphenoxy)-2-((cyanophenyl)amino)-6,7,8,9-tetrahydro-5H-pyrimido[4,5-d]azepine-7-carbonyl)pyrrolidine-1-carboxylate]", "values": [
      {"measurement": "IC50", "result": 230, "unit": "µM"}
    ]},
    {"smiles": "Cc1cc(C=O)cc(C)c1Oc1nc(Nc2ccc(C#N)cc2)nc2c1CCN(C)C2", "note": "[BB0273775, 4-((4-(4-Formyl-2,6-dimethylphenoxy)-7-methyl-5,6,7,8-tetrahydro[3,4-d]pyrimidine-2-yl)amino)benzonitrile]", "values": [
      {"measurement": "IC50", "result": 295, "unit": "µM"}
    ]},
    {"smiles": "Cc1cc(C#N)cc(C)c1Oc1nc(Nc2ccc(C#N)cc2)nc2c1CCN(CC#N)CC2", "note": "[BB0274095, 4-((7-(cyanomethyl)-2-((4-cyanophenyl)amino)-6,7,8,9-tetrahydro-5H-pyrimido[4,5-d]azepine-4-yl)oxy)-3,5-dimethylbenzonitrile]", "values": [
      {"measurement": "IC50", "result": 11.3, "unit": "µM"}
    ]},
    {"smiles": "Cc1cc(C#N)cc(C)c1Oc1nc(Nc2ccc(C#N)cc2)nc2c1CCN(C(=O)c1ccccn1)CC2", "note": "[BB0274010, 4-((2-((4-Cyanophenyl)amino)-7-picolynoyl-6,7,8,9-tetrahydro-5H-pyrimido[4,5-d]azepine-4-yl)oxy)-3,5-dimethylbenzonitrile]", "values": [
      {"measurement": "IC50", "result": 0.062, "unit": "µM"}
    ]},
    {"smiles": "Cc1cc(C#N)cc(C)c1Oc1nc(Nc2ccc(C#N)cc2)nc2c1CCN(C(=O)c1ccncc1)CC2", "note": "[BB0274011, 4-((2-((4-Cyanophenyl)amino)-7-isonicotinoyl-6,7,8,9-tetrahydro-5H-pyrimido[4,5-d]azepine-4-yl)oxy)-3,5-dimethylbenzonitrile]", "values": [
      {"measurement": "IC50", "result": 27.1, "unit": "µM"}
    ]},
    {"smiles": "Cc1cc(C#N)cc(C)c1Oc1nc(Nc2ccc(C#N)cc2)nc2c1CN(C(=O)c1cnccn1)CC2", "note": "[BB0274100, 4-((2-((4-Cyanophenyl)amino)-6-(pyrazine-2-carbonyl)-5,6,7,8-tetrahydropyrido[4,3-d]pyrimidine-4-yl)oxy)-3,5-dimethylbenzonitrile]", "values": [
      {"measurement": "IC50", "result": 33.8, "unit": "µM"}
    ]},
    {"smiles": "Cc1cccc(C)c1Oc1nc(Nc2ccc(C#N)cc2)nc2c1CCN(Cc1ccccc1)C2", "note": "[BB0273459]", "values": [
      {"measurement": "IC50", "result": 74.3, "unit": "µM"}
    ]},
    {"smiles": "CC(=O)N1CCc2nc(Nc3ccc(C#N)cc3)nc(Oc3c(C)cc(C#N)cc3C)c2CC1", "note": "[BB0274145, 4-((7-Acetyl-2-((4-cyanophenyl)amino)-6,7,8,9-tetrahydro-5H-pyrimido[4,5-d]azepine-4-yl)oxy)-3,5-dimethylbenzonitrile]", "values": [
      {"measurement": "IC50", "result": 1.69, "unit": "µM"}
    ]},
    {"smiles": "Cc1cc(C#N)cc(C)c1Oc1nc(Nc2ccc(C#N)cc2)nc2c1CCN(C(=O)C1CCNCC1)CC2", "note": "[BB0274026, 4-((2-((4-Cyanophenyl)amino)-7-(piperidine-4-carbonyl)-6,7,8,9-tetrahydro-5H-pyrimido[4,5-d]azepine-4-yl)oxy)-3,5-dimethylbenzonitrile]", "values": [
      {"measurement": "IC50", "result": 0.364, "unit": "µM"}
    ]},
    {"smiles": "Cc1cc(C#N)cc(C)c1Oc1nc(Nc2ccc(C#N)cc2)nc2c1CN(C(=O)C(N)Cc1cnc[nH]1)CC2", "note": "(stereo not drawn) [BB0275622, 4-({6-[2-Amino-3-(1H-imidazole-5-yl)propanoyl]-2-[(4-cyanophenyl)amino]-5H,6H,7H,8H-pyrido[4,3-d]pyrimidine-4-yl}oxy)-3,5-dimethylbenzonitrile]", "values": [
      {"measurement": "IC50", "result": 0.032, "unit": "µM"}
    ]},
    {"smiles": "Cc1cc(C#N)cc(C)c1Oc1nc(Nc2ccc(C#N)cc2)nc2c1CCN(C(=O)Cn1ccnc1C)CC2", "note": "[BB0274236, 4-((2-((4-Cyanophenyl)amino)-7-(2-(methyl-1H-imidazole-1-yl)acetyl)-6,7,8,9-tetrahydro-5H-pyrimido[4,5-d]azepine-4-yl)oxy)-3,5-dimethylbenzonitrile]", "values": [
      {"measurement": "IC50", "result": 0.0488, "unit": "µM"}
    ]},
    {"smiles": "Cc1cc(C#N)cc(C)c1Oc1nc(Nc2ccc(C#N)cc2)nc2c1CCN(C(=O)[C@H]1CCCN1C(=O)OC(C)(C)C)CC2", "note": "[BB0274064, (R)-Tert-butyl 2-(4-(4-cyano-2,6-dimethylphenoxy)-2-((cyanophenyl)amino)-6,7,8,9-tetrahydro-5H-pyrimido[4,5-d]azepine-7-carbonyl)pyrrolidine-1-carboxylate]", "values": [
      {"measurement": "IC50", "result": 493, "unit": "µM"}
    ]},
    {"smiles": "Cc1cc(C#N)cc(C)c1Oc1nc(Nc2ccc(C#N)cc2)nc2c1CN(C(=O)[C@@H](N)Cc1ccc(O)cc1)CC2", "note": "[BB0274125, (S)-4-((6-(2-Amino-3-(4-hydroxyphenyl)propanoyl)-2-((4-cyanophenyl)amino)-5,6,7,8-tetrahydropyrido[4,3-d]pyrimidine-4-yl)oxy)-3,5-dimethylbenzonitrile]", "values": [
      {"measurement": "IC50", "result": 82.1, "unit": "µM"}
    ]},
    {"smiles": "Cc1cc(C#N)cc(C)c1Oc1nc(Nc2ccc(C#N)cc2)nc2c1CCN(Cc1cccn1C)CC2", "note": "[BB0274074]", "values": [
      {"measurement": "IC50", "result": 83.3, "unit": "µM"}
    ]},
    {"smiles": "Cc1cc(C#N)cc(C)c1Oc1nc(Nc2ccc(C#N)cc2)nc2c1CN(C(=O)C1CNC1)CC2", "note": "[BB0274099, 4-((6-(Azetidine-3-carbonyl)-2-((4-cyanophenyl)amino)-5,6,7,8-tetrahydropyrido[4,3-d]pyrimidine-4-yl)oxy)-3,5-dimethylbenzonitrile]", "values": [
      {"measurement": "IC50", "result": 0.152, "unit": "µM"}
    ]},
    {"smiles": "Cc1cc(C#N)cc(C)c1Oc1nc(Nc2ccc(C#N)cc2)nc2c1CN(C(=O)[C@@H](N)CC(C)C)CC2", "note": "[BB0274129, (S)-4-((6-(2-Amino-4-methylpentanoyl)-2-((4-cyanophenyl)amino)-5,6,7,8-tetrahydropyrido[4,3-d]pyrimidine-4-yl)oxy)-3,5-dimethylbenzonitrile]", "values": [
      {"measurement": "IC50", "result": 1.04, "unit": "µM"}
    ]},
    {"smiles": "Cc1cc(C#N)cc(C)c1Oc1nc(Nc2ccc(C#N)cc2)nc2c1CCN(C1CCOCC1)CC2", "note": "[BB0274072, 4-((2-((4-Cyanophenyl)amino)-7-(tetrahydro-2H-pyran-4-yl)-6,7,8,9-tetrahydro-5H-pyrimido[4,5-d]azepine-4-yl)oxy)-3,5-dimethylbenzonitrile]", "values": [
      {"measurement": "IC50", "result": 4.07, "unit": "µM"}
    ]},
    {"smiles": "Cc1cc(C#N)cc(C)c1Oc1nc(Nc2ccc(C#N)cc2)nc2c1CCN(Cc1ccncc1)CC2", "note": "[BB0274016, 4-((2-((4-Cyanophenyl)amino)-7-(pyridine-4-ylmethyl)-6,7,8,9-tetrahydro-5H-pyrimido[4,5-d]azepine-4-yl)oxy)-3,5-dimethylbenzonitrile]", "values": [
      {"measurement": "IC50", "result": 4880, "unit": "µM"}
    ]},
    {"smiles": "Cc1ccc(CN2CCc3nc(Nc4ccc(C#N)cc4)nc(Oc4c(C)cc(C#N)cc4C)c3CC2)o1", "note": "[BB0274073]", "values": [
      {"measurement": "IC50", "result": 57.4, "unit": "µM"}
    ]},
    {"smiles": "Cc1cc(C#N)cc(C)c1Oc1nc(Nc2ccc(C#N)cc2)nc2c1CCN(C1CCN(C(=O)OC(C)(C)C)CC1)CC2", "note": "[BB0274027, Tert-butyl 4-(4-(4-cyano-2,6-dimethylphenoxy)-2-((4-cyanophenyl)amino)-8,9-dihydro-5H-pyrimido[4,5-d]azepine-7(6H)-yl)piperidine-1-carboxylate]", "values": [
      {"measurement": "IC50", "result": 37, "unit": "µM"}
    ]}
  ]
}
